Calls of active or inactive are those of the source. The rule behind the calls is not given here.
Target: Nuclear receptor coactivator 1 (Homo sapiens) (UniProt Q15788)
Assay: SRC1 (NCOA1) coactivator inhibitors, dose response, cell-based, luciferase reporter, luminescence (AID 602235);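 note: cells transfected with pGL4.31 reporter plus pBIND-SRC1 vector; potency is for inhibitors that lower SRC1 reporter luminescence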

Nuclear receptor coactivator 1 (Homo sapiens), sequence (Q15788 whole entry, looked up): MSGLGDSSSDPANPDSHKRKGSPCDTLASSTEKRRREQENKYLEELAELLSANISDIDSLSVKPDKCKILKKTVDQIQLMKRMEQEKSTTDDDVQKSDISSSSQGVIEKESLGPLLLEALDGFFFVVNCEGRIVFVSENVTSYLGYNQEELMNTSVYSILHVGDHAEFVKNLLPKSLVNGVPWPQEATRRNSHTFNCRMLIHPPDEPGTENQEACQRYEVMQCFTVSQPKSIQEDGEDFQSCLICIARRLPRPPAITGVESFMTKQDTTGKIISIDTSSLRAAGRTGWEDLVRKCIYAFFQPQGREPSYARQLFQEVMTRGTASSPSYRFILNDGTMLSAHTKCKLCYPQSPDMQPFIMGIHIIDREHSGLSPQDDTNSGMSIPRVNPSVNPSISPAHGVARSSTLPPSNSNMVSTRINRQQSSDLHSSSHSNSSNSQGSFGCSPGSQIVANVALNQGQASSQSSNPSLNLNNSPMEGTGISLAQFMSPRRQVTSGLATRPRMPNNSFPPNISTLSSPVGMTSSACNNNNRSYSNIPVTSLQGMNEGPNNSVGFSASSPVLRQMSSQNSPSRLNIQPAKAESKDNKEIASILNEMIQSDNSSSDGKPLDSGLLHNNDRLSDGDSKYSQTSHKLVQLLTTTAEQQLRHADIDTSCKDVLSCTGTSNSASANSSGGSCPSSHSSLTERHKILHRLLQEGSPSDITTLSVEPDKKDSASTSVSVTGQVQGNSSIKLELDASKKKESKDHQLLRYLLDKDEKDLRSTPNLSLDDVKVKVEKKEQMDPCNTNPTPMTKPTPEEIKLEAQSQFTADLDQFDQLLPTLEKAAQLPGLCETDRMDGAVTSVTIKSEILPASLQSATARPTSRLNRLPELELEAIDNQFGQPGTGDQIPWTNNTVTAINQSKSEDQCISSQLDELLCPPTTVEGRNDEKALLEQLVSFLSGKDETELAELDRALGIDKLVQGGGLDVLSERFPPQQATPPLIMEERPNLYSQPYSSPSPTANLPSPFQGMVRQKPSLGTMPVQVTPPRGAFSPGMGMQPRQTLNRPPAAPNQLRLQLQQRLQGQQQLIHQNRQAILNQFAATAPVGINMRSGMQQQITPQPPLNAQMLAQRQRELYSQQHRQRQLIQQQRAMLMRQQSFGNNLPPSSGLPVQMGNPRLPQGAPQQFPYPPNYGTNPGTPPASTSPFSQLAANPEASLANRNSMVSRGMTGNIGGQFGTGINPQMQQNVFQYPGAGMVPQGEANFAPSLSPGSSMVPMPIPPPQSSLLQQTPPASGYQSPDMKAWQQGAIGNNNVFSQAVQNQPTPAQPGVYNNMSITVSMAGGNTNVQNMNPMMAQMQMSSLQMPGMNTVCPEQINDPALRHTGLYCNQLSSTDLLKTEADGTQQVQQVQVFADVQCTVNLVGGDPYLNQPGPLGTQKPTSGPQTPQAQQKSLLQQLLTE

Row | Structure (SMILES) | IC50
1 | Cc1ccc(NC(=O)C2CCN(c3ncnc4sc(C)c(C)c34)CC2)cc1S(=O)(=O)N(C)C | inactive
2 | Nc1ccc(-c2cc3ccccc3oc2=O)cc1 | 8.96 µM
3 | CN(Cc1cnc2nc(N)nc(N)c2n1)c1ccc(C(=O)NC(CCC(=O)O)C(=O)O)cc1 (centres undefined) | > 35.9 µM (inactive)
4 | Fc1cccc(CSc2nnc3ccc(-c4ccncc4)nn23)c1 | > 35.8 µM (inactive)
5 | Cc1cccc(C)c1-c1ccc(CN2C(CC(C)C)C(=O)N(Cc3cn(CC4CCCCC4)nn3)CCS2(=O)=O)cc1 (centres undefined) | inactive
6 | c1nc2sc3c(c2c2nnnn12)CCCC3 | inactive
7 | CC(=O)NC(c1cc(Cl)c2cccnc2c1O)C(C)C (centres undefined) | > 35.9 µM (inactive)
8 | Cc1ccc(O)c(Nc2ncnc3ccc([N+](=O)[O-])cc23)c1 | inactive
9 | CCn1c(Oc2ccc(F)cc2)nc2c1c(=O)n(C)c(=O)n2C | > 12 µM (inactive)
10 | Fc1ccc(CSc2nnc(-c3ccncc3)o2)cc1 | 6.06 µM
11 | O=C(N/N=C/c1cc([N+](=O)[O-])ccc1O)c1cccc(N2CCCC2=O)c1 | inactive
12 | COc1ccc2c(c1)-c1c(ssc1=S)C(C)(C)N2C(=O)CSC1=NCCS1 | inactive
13 | CCOc1ccc(-c2noc(CCC(=O)O)n2)cc1 | > 35.9 µM (inactive)
14 | COc1ccc(/C=C2\CC/C(=C\c3ccc(OC)c(OC)c3)C2=O)cc1OC | > 35.9 µM (inactive)
15 | Cc1ccc(N(Cc2cc(=O)[nH]c3ccccc23)C(=O)CCl)c(C)c1 | 5.31 µM
16 | CCN(CC(=O)Nc1ccc(NC(C)=O)cc1)C(=O)C1(c2ccc(Cl)cc2)CCC1 | inactive
17 | CC(=O)c1cc2c(C)cc(=O)oc2cc1O | > 35.9 µM (inactive)
18 | NNC(=O)c1cc2ccccc2cc1O | 7.02 µM
19 | O=C(CCCc1nc(-c2ccccc2Cl)no1)NC1CCCC1 | inactive
20 | O=C1CCC/C1=c1\s/c(=C/c2cccnc2)c(=O)n1-c1ccccc1 | inactive
21 | CC(=O)N1CCN(c2ccc(Oc3ncnc4sccc34)cc2)CC1 | inactive
22 | CC(=O)NC(c1cc(Cl)c2cccnc2c1O)C1CC1 (centres undefined) | inactive
23 | CCOc1ccc(/C=C2\SC(=S)N(CCC(=O)O)C2=O)cc1 | > 35.9 µM (inactive)
24 | O=C(Nc1nc(-c2ccccn2)cs1)c1cccc(-n2cnnn2)c1 | inactive
25 | O=C(Nc1ccncc1)c1ccccc1[N+](=O)[O-] | 9.54 µM
26 | O=C1CCC2S/C(=C/Nc3ccc(C(F)(F)F)cc3)C(=O)N12 (centres undefined) | > 35.9 µM (inactive)

Row | Structure (SMILES) | IC50
27 | COC(=O)N(NC(=O)C(O)(CCC(C)C)CCC(C)C)c1ccccc1 | > 35.9 µM (inactive)
28 | COC(CN(C(=O)CCl)C(C(=O)NC1CCCCC1)c1ccccc1C)OC (centres undefined) | 9.53 µM
29 | O=C(Nc1cccc(C(F)(F)F)c1)Nc1nnc([C@@H]2C[C@H](O)[C@@H](CO)O2)s1 | 9.55 µM
30 | O=C(CCCOc1ccc(Cl)cc1Cl)N/N=C/c1ccccc1O | 6.73 µM
31 | CN(C)C(=O)c1ccc(-c2n[nH]c(=O)c3ccccc23)cc1 | inactive
32 | CNc1ncnc(Sc2nc(N)nc3nc[nH]c23)c1[N+](=O)[O-] | > 35.9 µM (inactive)
33 | Nc1ccn(C2OC(CO)C(O)C2O)c(=O)n1 (centres undefined) | > 11.9 µM (inactive)
34 | Cc1nc2ccccn2c1-c1ccnc(=S)[nH]1 | 6.33 µM
35 | O=C(NC(NC(=S)N1CCOCC1)C(Cl)(Cl)Cl)c1ccc(Cl)cc1 (centres undefined) | > 35.9 µM (inactive)
36 | Nc1ccc(Oc2ccccc2-c2ccccc2)cc1 | inactive
37 | COc1ccc(-n2cnc3c(sc4nccc(N(C)C)c43)c2=O)cc1 | inactive
38 | CC(=O)/C(N=Nc1ccc2c(c1)OCCO2)=C(\C)O | > 35.9 µM (inactive)
39 | CCCCC(=O)OCC(=O)C1(O)Cc2c(O)c3c(c(O)c2C(OC2CC(NC(=O)C(F)(F)F)C(O)C(C)O2)C1)C(=O)c1c(OC)cccc1C3=O (centres undefined) | > 35.9 µM (inactive)
40 | O=C(NC1CCCCC1)C(c1cccnc1)N(C(=O)CCl)c1cccc(Cl)c1 (centres undefined) | 6.91 µM
41 | CCOc1ccccc1-n1c(SCC(=O)Nc2ccccc2C(=O)O)nc2ccccc2c1=O | > 35.9 µM (inactive)
42 | c1ccc(-c2nnc(-c3ccccn3)nc2NC2CCCCC2)cc1 | 5.22 µM
43 | O=c1ccc2c(ccc3ncccc32)o1 | inactive
44 | O=C(CCl)N1N=C(c2ccco2)CC1c1ccco1 (centres undefined) | 5.7 µM
45 | c1cc2c(cn1)cnc1cscc12 | inactive
46 | CCOc1cc(C(N)=O)cc(Br)c1OC | inactive
47 | COc1cccc(/C=N/NC(=O)C(=O)Nc2ccccc2OC(F)(F)C(F)F)c1O | 5.69 µM
48 | c1cnc2ccc(-n3ccnc3)cc2c1 | > 35.9 µM (inactive)
49 | CCOc1cccc(/C=N/NC(=O)c2cccnc2)c1O | > 12 µM (inactive)
50 | CN(c1ccc(C(=O)N2CCN(Cc3ccc4c(c3)OCO4)CC2)cc1)S(=O)(=O)c1ccccc1 | > 35.9 µM (inactive)
51 | COc1ccccc1CNC(=O)C(=O)NCCC1CCCCN1S(=O)(=O)c1ccc(C)cc1 (centres undefined) | inactive
52 | CCn1c2ccccc2c2cnc(N=CN(C)C)c(C#N)c21 | inactive

Row | Structure (SMILES) | IC50
53 | COc1cc(/C=C2\CC(C(C)(C)C)C/C(=C\c3cc(OC)c(OC)c(OC)c3)C2=O)cc(OC)c1OC (centres undefined) | > 35.9 µM (inactive)
54 | COc1cc(C(=O)N/N=C(\c2ccccc2)c2ccccn2)cc(OC)c1OC | > 11.9 µM (inactive)
55 | C=C1C(=O)[C@@]23C[C@H]4[C@@H]5[C@@]6(C)CCC[C@@]57[C@@H]2[C@@H](O)[C@@H]1C[C@H]3[C@H]7N4C6 | 3.71 µM
56 | CCCS(=O)(=O)c1c(S(=O)(=O)CCC)c2c(C)cccn2c1C(=O)N/N=C/c1cc(O)cc(O)c1 | inactive
57 | Cc1c(/C(O)=C2/C(=O)C(=O)N(Cc3cccnc3)C2c2ccccn2)cnn1-c1ccccc1 (centres undefined) | inactive
58 | CCN(Cc1ccncc1)C(=O)CC1C(=O)NCCN1Cc1ccc(F)c(F)c1 (centres undefined) | inactive
59 | COc1ccc(CNc2ncc(-c3ccc(F)cc3)n2C)c2ccccc12 | inactive
60 | O=C(CCC(=O)Nc1ccc(Br)cc1)N/N=C/c1ccccc1O | 4.94 µM
61 | O=C(c1ccncc1)N(Cc1cc2ccccc2[nH]c1=O)C1CCCCC1 | inactive
62 | CN(CC(=O)Nc1ccc(Cl)c(C(F)(F)F)c1)C(=O)C1CC(=O)N(c2ccc3c(c2)OCCO3)C1 (centres undefined) | inactive
63 | CCCCN(CCCC)c1ncnc2nc[nH]c12 | inactive
64 | OCCN(CCO)CC(O)COc1ccc(C23CC4CC(CC(C4)C2)C3)cc1 (centres undefined) | > 35.9 µM (inactive)
65 | S=C(Nc1ccccc1)Nc1ccc(OCc2ccc(Cl)cc2Cl)cc1 | 4.26 µM
66 | COC(=O)c1sc2cnccc2c1N | inactive
67 | COc1ccccc1-c1cc2nc(-c3ccccc3)cc(N3CCN(C(=O)c4ccco4)CC3)n2n1 | inactive
68 | O=C(Nc1cccc2c1CCCC2)c1cc([N+](=O)[O-])ccc1Cl | > 35.9 µM (inactive)
69 | O=C(CCl)N1N=C(c2cccs2)CC1c1ccco1 (centres undefined) | > 35.9 µM (inactive)
70 | CC(C)(C)OC(=O)NCC(=O)Oc1cc2oc(=O)cc(-c3ccccc3)c2cc1Cl | inactive
71 | Cc1ccc2nc(C(F)(F)F)c(C#N)c(N)c2c1 | inactive
72 | Cn1c(=O)c2[nH]c(COc3ccc(C(C)(C)C)cc3)nc2n(C)c1=O | inactive
73 | Cc1ccc2occ(/C=N/NC(=O)c3ccncc3)c(=O)c2c1 | inactive
74 | COc1ccc(-c2cnc(N)nc2-c2ccc(OC)cc2O)cc1 | inactive
75 | Cc1c(CC(=O)NCCCC(=O)O)c(=O)oc2cc3c(cc12)CCC(C)(C)O3 | inactive
76 | O=C(CCn1cnc(-c2ccccc2)c1-c1ccccc1)N/N=C/c1ccccc1O | inactive
77 | COc1ccc(NC(=O)CN(C)C(=O)C2(c3ccccc3)CCCC2)cc1 | inactive
78 | Cc1ccc(OCC(=O)c2cc(C)n(Cc3cccs3)c2C)c([N+](=O)[O-])n1 | > 35.9 µM (inactive)

Row | Structure (SMILES) | IC50
79 | O=C(N/N=C/c1coc2ccc(Cl)cc2c1=O)c1ccc(O)cc1 | > 35.9 µM (inactive)
80 | COc1cc2c(cc1OC)C(C)N(C(=O)c1cccc([N+](=O)[O-])c1)CC2 (centres undefined) | inactive
81 | CC1CCCCN1c1ncnc2ccccc12 (centres undefined) | > 35.9 µM (inactive)
82 | Cc1nc(N2CCC(C(N)=O)CC2)c2c(-c3cccs3)csc2n1 | 8.59 µM
83 | NS(=O)(=O)c1ccc(Nc2nc(-c3cccnc3)cs2)cc1 | > 35.8 µM (inactive)
84 | CN(Cc1cnc2nc(N)nc(N)c2n1)c1ccc(C(=O)NC(CCC(=O)O)C(=O)O)c2ccccc12 (centres undefined) | > 35.9 µM (inactive)
85 | CCOC(=O)c1cccc2c1-c1ccccc1/C2=N/O | 7.13 µM
86 | CC(=O)C1=C(C)NC2=C(C(=O)CC(C)(C)C2)C1C (centres undefined) | inactive
87 | CC(C)(C)NC(=O)C1(C)CCC(=O)N1CCCn1ccnc1 (centres undefined) | inactive
88 | COc1cc(C(=O)NC(=S)NNC(=O)c2cnccn2)cc(OC)c1OC | inactive
89 | O=C(Nc1cccc(Cl)c1)Nc1nnc(-c2ccncc2)s1 | 8 µM
90 | Cc1ccc(O)c(C(=O)c2cnn(C(=O)COc3ccc(Cl)cc3)c2)c1 | inactive
91 | O=C(CCl)N(c1ccccc1)C1CCS(=O)(=O)C1 (centres undefined) | 2.84 µM
92 | CCc1nc(N)nc(N)c1-c1ccc(Cl)c([N+](=O)[O-])c1 | 6.12 µM
93 | CCN(CC)CCNC(=O)c1ccc(NC(=O)C2CCN(c3ncnc4sc(C)c(C)c34)CC2)cc1 | 5.4 µM
94 | NC(=S)NN=Cc1ccc(OC(=O)COc2cc(Cl)c(Cl)cc2Cl)cn1 | inactive
95 | COc1ccc2[nH]c(=O)c(CN(CCN3CCCC3)C(=O)Nc3ccccc3Cl)cc2c1 | > 35.8 µM (inactive)
96 | O=C(N/N=C/c1ccccc1O)/C(=C/c1ccccc1)CCO | inactive
97 | O=C(CCl)NC(Cc1ccccc1)c1ccccc1 (centres undefined) | inactive
98 | CC(=O)c1cccc(NC(=O)COc2cc3oc(=O)c(CC(C)O)c(C)c3cc2Cl)c1 (centres undefined) | > 35.9 µM (inactive)
99 | O=C1NCCc2c1[nH]c1ccc([N+](=O)[O-])cc21 | inactive
100 | CC(NC(=O)COC(=O)c1cccs1)c1ccccc1 (centres undefined) | > 35.9 µM (inactive)
101 | Cc1cccn2c(=O)c3cc(C(=O)NCCN4CCOCC4)c(=N)n(Cc4cccnc4)c3nc12 | inactive
102 | O=C1c2cccc(OCc3ccc(F)cc3)c2CCN1Cc1ccccc1 | > 35.9 µM (inactive)
103 | Cc1sc2ncnc(N3CCC(C(=O)N(C)CC(=O)Nc4cccc(F)c4)CC3)c2c1C | > 12 µM (inactive)
104 | COc1cccc(CNc2ncnc3ccc(-c4c(C)noc4C)cc23)c1 | > 35.9 µM (inactive)
